The values below come from PMC6156138, “Combination of a Latency-Reversing Agent With a Smac Mimetic Minimizes Secondary HIV-1 Infection in vitro” (Frontiers in Microbiology, 2018).

The assay relates to TNF-α. The experiment in a line: TNF-α production in culture supernatants (ELISA). The assay is classed as cell-based. Particulars: ACH-2 cells, PEP005 0–50 nM, 24 h. As to the method: The expression of TNF-α mRNA was measured as previously described ([Zhang et al., 2014]). For the detection of supernatant TNF-α levels, ACH-2 cells (2.5 × 10^5 cells/ml) were incubated with various concentrations of PEP005 (0–50 nM) for 24 h at 37°C. Culture supernatants were harvested and centrifuged to remove cellular debris. The production of TNF-α was measured by using a Human TNF alpha Platinum ELISA Kit (eBioscience, Hatfield, United Kingdom) according to the manufacturer’s instructions. The sensitivity of the assay was 2.3 pg/ml.
Supplementary file Data_Sheet_6.PDF: FIGURE S6 Elevation of supernatant TNF-α protein and mRNA levels in the presence of PEP005. (A) ACH-2 cells were exposed to PEP005, incubated for 24 h, supernatant was harvested, and TNF-α protein levels were measured using ELISA. (B) Changes in mRNA levels of TNF-α in PEP005-treated primary CD4^+ T-cells in eight HIV-1 patients (Supplementary Table S3). Cells were harvested after 24 h incubation. Click here for additional data file.

For `C/C=C(/C)C(=O)O[C@H]1C(C)=C[C@]23C(=O)[C@@H](C=C(CO)[C@@H](O)[C@]12O)[C@H]1[C@@H](C[C@H]3C)C1(C)C` [PEP005, ingenol-3-angelate], the “supernatant TNF-α level” value was “elevated”.
